{
  "source": "patent US9272047B2",
  "about": "“Use of biological surfactant as anti-inflammatory agent and tissue preservative solution” (Shaperon Inc., priority 2007, dated 2016)",
  "key": {"dendritic cells [1]": {"test_system": "dendritic cells", "assay": "Inhibition of E. coli LPS-induced activation of dendritic cells (CD40, CD80, CD86, I-Ab expression)", "assay_type": "cell-based, mouse", "details": "100 ng/ml E. coli LPS; CD11c(+)/7AAD(−) dendritic cells", "method": "In order to assay the effect of sodium glycocholate on the activation procedure of antigen presenting cells, which is induced by E. coli LPS, cells were separated from the bone marrow of recombination activating gene 2 (Rag2) deficient mouse. The separated cells were plated at 2×10^5 cells/well in a 96-well plate and then treated with 1.5 ng/ml of granulocyt-macrophage colony-stimulating factor (GM-CSF) and 0.75 ng/ml of interleukin-4 followed by the differentiation of the cells into dentritic cells through 6-day incubation.\nThe dendritic cells were well mixed with sodium glycocholate and LPS. The mixtures were stimulated for 18 hours at 37° C., and stained with anti-CD40-FITC, anti-CD80-FITC, anti-I-Ab-PE, anti-CD86-PE, 7AAD and anti-CD11c-APC, then the cells were assayed via a flow cytometer. Each group was treated and assayed at least twice, and the results were statistically analyzed through t-test. The results were p<0.05 compared with the experimental groups treated by only LPS.\nAs shown FIGS. 9A-9B to 11A-11B, in order to assay only living dedritic cells, CD11c(+)/7AAD(−) cells were selected and then the expressions of dendritic cell costimulatory molecules and I-Ab were assayed."}, "macrophages [2]": {"test_system": "macrophages", "assay": "Inhibition of LPS-induced nitric oxide generation, macrophages (Griess)", "assay_type": "cell-based, mouse", "details": "macrophages stimulated by LPS, 18 hours", "method": "(§1) Then, the resulting dendritic cell mixtures were plated, by […] each, in a 96-well plate. Griss reagents were added to each well, and the 96-well plate was covered with foils and kept reacting for 15 min at room temperature. Absorbance at 540 nm was measured using an ELISA reader. Macrophages separated from abdomen were also treated with sodium glycocholate, sodium taurochenodeoxycholate and sodium taurodeoxycholate, respectively, and then stimulated with LPS for 18 hours. Thereafter, the same experiments as the dentritic cells were performed to the macrophages."}, "[3]": {"test_system": "ischemia-reperfusion renal injury", "assay": "Ischemia-reperfusion renal injury model, organ preservative solution additive", "assay_type": "in vivo, Sprague-Dawley rat", "details": "0.5 mg/ml in HTK solution", "method": "The effect of sodium glycocholate to inflammatory response and renal function in an ischemia-reperfusion renal injury model, was evaluated. Five Sprague-Dawley (SD) male rats of 6 weeks age were used per each group, and foods and waters were not supplied to all the rats from 1 day before the experiment. The rats were anesthetized by the administration of 1 mg avertin (tribromoethanol/amyl hydrate)/100 g rat to the abdomen of the rats, and then laparotomized. All the blood flow to a left kidney was blocked by clamping the aorta and vena cava using vascular clamps. Before injecting the organ preservative solution, a vein of the left kidney was penetrated to minimize physical damage of the kidney due to the preservative solution pressure. Then, after histidine-tyroptophan-ketoglutarate (HTK) or a mixture solution of HTK and 0.5 mg/ml of sodium glycocholate was injected, at 4 ml/rat, into the vein, the damaged part of the vein was sutured by using 10-0 suture. After 30 min maintenance of the above state, the vascular clamps were removed and the laparotomized part was sutured. […] The concentration of IL-6 in the serum was measured by a enzyme-linked immunosorbent assay, and the concentrations of blood urea nitrogen (BUN), creatinine (Cre) and aspartate aminotransferase (AST) in the plasma were measured by an automated analyzer."}, "abdominal cells": {"test_system": "abdominal cells", "assay": "Toxicity to abdominal cells separated from mice after abdominal administration (7AAD)", "assay_type": "in vivo, C57BL/6 mouse", "details": "5 mg (250 mg/kg) into abdomen, cells separated after 1 hour", "method": "In order to assay the toxicity of sodium glycocholate to a mouse, experiments were performed to five C57BL/6 male mice of 7-9 weeks age per each group. Sodium glycocholate dissolved in PBS was kept in vitro for 1 hour at 37° C., and then the sodium glycocholate solution was administered into the abdomen of the mice followed by the cell analysis. After 1 hour from the administration, the abdominal cells were separated and stained with 7AAD, and then the abdominal cells were analyzed. Cells which were freezed and thawed at least five times were used for a positive control group in 7ADD staining. Experimental results were statistically analyzed by t-test, and p<0.05 compared with the experimental group which was not treated with sodium glycocholate."}, "Balb/c mice": {"test_system": "Balb/c mice", "assay": "Acute toxicity in mice, single administration into abdomen or tail vein", "assay_type": "in vivo", "method": "Acute toxicity was measured by using five Balb/c mice of 6 weeks age per group, which were once administered with sodium glycocholate, at different sodium glycocholate concentrations, into the abdomen and tail vein. […] However, 250 mg/kg of sodium glycocholate at which the above-mentioned effects of sodium glycocholate, and the sodium glycocholate concentration of below 250 mg/kg, 100 % of the mice survived (FIGS. 32A-32B). Also, 100 % of the mice survived at the sodium glycocholate concentration of not exceeding 150 mg/kg in the experiment where sodium glycocholate of different concentrations was adiministered into tail vein of mice (FIG. 33)."}, "dendritic cells [4]": {"test_system": "dendritic cells", "assay": "Inhibition of LPS-induced nitric oxide generation, dendritic cells (Griess)", "assay_type": "cell-based, mouse", "details": "dendritic cells stimulated by LPS, 18 hours", "method": "as §1"}, "macrophages [5]": {"test_system": "macrophages", "assay": "In vitro proinflammatory cytokine generation by E. coli LPS, macrophages (ELISA)", "assay_type": "cell-based, C57BL/6 mouse", "details": "LPS stimulation", "method": "In order to assay the effect of sodium glycocholate on the generation of proinflammatory cytokines induced by E. coli LPS, dendritic cells were prepared in the same way as Example 3, and macrophages were separated from the abdomen of C57BL/6 mouse. Thereafter, sodium glycocholate and LPS were reacted in vitro for 1 hour at 37° C., and then mixed with the cells. Each cell was stimulated for 14 hours at 37° C., and then supernatant fluid was separated.\nThe concentrations of TNF-α and interleukin-12p40 in the separated supernatant fluid was measured by an enzyme-linked immunoabsorbent assay (ELISA).\nEach group was treated and assayed at least twice, and the results were statistically analyzed through t-test. The results were p<0.05 compared with the experimental groups treated by only LPS."}, "CHO cells": {"test_system": "CHO cells", "assay": "Cytotoxicity to CHO cells (7AAD, FACS)", "assay_type": "cell-based, Chinese hamster", "method": "The cytotoxicity of sodium glycocholate to the CHO cells, dendritic cells, T cells which were used in the above Examples was assayed. FACS analysis was performed after staining with 7AAD. First, sodium glycocholate was kept in vitro for 1 hour at 37° C., and then mixed with cells. CHO cells or dendritic cells were incubated for 14 hours at 37° C., and T cells which were mixed with 14 hour-incubated dendritic cells, were incubated for 4 days. Then, each cell was stained with 7AAD and cell analysis were carried out by using a flow cytometer.\nThe same procedures as for FIG. 25A were carried out in FIGS. 26A-26C-Figs. 31A-31B and cytotoxicity experiments were performed on three groups of bile acid derivatives which were classified based on their solubility in different solvents."}},
  "note": "“Also recorded” adds a separate entry of the source.",
  "data": [
    {"molecule": "C[C@H](CCC(=O)NCC(=O)[O-])[C@H]1CC[C@H]2[C@@H]3[C@H](O)C[C@@H]4C[C@H](O)CC[C@]4(C)[C@H]3C[C@H](O)[C@]12C.[Na+]", "note": "[sodium glycocholate]", "values": [
      {"measurement": "increased expression of CD40, CD80, CD86 and I-Ab", "setting": "dendritic cells [1]", "value": "inhibited depending on the concentration"},
      {"measurement": "generation of NO", "setting": "macrophages [2]", "value": "inhibited"},
      {"measurement": "ischemia-reperfusion renal injury", "setting": "[3]", "value": "inhibited"},
      {"measurement": "cytotoxicity for abdominal cells (survival rate of the abdominal cells versus PBS control)", "setting": "abdominal cells", "value": "no significant difference; also recorded: dose not have cytotoxicity"},
      {"measurement": "mice survived", "setting": "Balb/c mice; abdominal administration, 250 mg/kg and below", "value": 100, "unit": "%"},
      {"measurement": "concentration (dose) at which toxicity was shown", "setting": "Balb/c mice; abdominal administration, single dose", "value": "> 500", "unit": "mg/kg"},
      {"measurement": "adverse effect", "setting": "Balb/c mice; mouse test, dose of 250 mg/kg mouse", "value": "no adverse effect"},
      {"measurement": "mice survived", "setting": "Balb/c mice; tail vein administration, not exceeding 150 mg/kg", "value": 100, "unit": "%"},
      {"measurement": "generation of NO", "setting": "dendritic cells [4]", "value": "inhibited"},
      {"measurement": "inhibition of generation of TNF-α", "setting": "macrophages [5]; 0.5 mg/ml", "value": "42.2±0.9", "unit": "%"},
      {"measurement": "inhibition of generation of interleukine-12p40", "setting": "macrophages [5]; 0.5 mg/ml", "value": "9.8±11.0", "unit": "%"},
      {"measurement": "inhibition of generation of TNF-α", "setting": "macrophages [5]; 1 mg/ml", "value": "87.8±0.2", "unit": "%"},
      {"measurement": "inhibition of generation of interleukine-12p40", "setting": "macrophages [5]; 1 mg/ml", "value": "54.3±4.1", "unit": "%"},
      {"measurement": "cytotoxicity", "setting": "CHO cells; 1 mg/ml", "value": "no significant cytotoxicity; also recorded: dose not have cytotoxicity"},
      {"measurement": "7AAD(+) increase compared with the negative control group", "setting": "CHO cells; 14 hours", "value": "2-4%"}
    ]}
  ]
}
